In ChEMBL document CHEMBL1201862, “PubChem BioAssay data set” (2004):
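1) Cells in 96-well plates. 2) Compound, 48 h, 5 concentrations. 3) Linear interpolation between surrounding doses. 4) Unreached endpoint = highest concentration. Here, GI50 denotes the concentration required for 50% inhibition of growth.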 Active and inactive are the calls of the source. Rule as the data show it: active = GI50 up to about 1.1 µM and inactive = higher.

What was measured:
Assay in all cases: NCI tumour cell line growth inhibition, 48 h
NCI-H226 = tested on: NCI-H226
SNB-78 = tested on: SNB-78
EKVX = tested on: EKVX
Malme-3M = tested on: Malme-3M
KM-20L2 = tested on: KM-20L2
SF-268 = tested on: SF-268
SNB-19 = tested on: SNB-19
UO-31 = tested on: UO-31
NCI-H23 = tested on: NCI-H23
SK-MEL-5 = tested on: SK-MEL-5
OVCAR-3 = tested on: OVCAR-3
OVCAR-4 = tested on: OVCAR-4
HT-29 = tested on: HT-29
HOP-62 = tested on: HOP-62
LXFL 529 = tested on: LXFL 529
SN12C = tested on: SN12C
SW-620 = tested on: SW-620
M14 = tested on: M14
TK-10 = tested on: TK-10
U-251 = tested on: U-251
NCI-H460 = tested on: NCI-H460
ACHN = tested on: ACHN
LOX IMVI = tested on: LOX IMVI
XF498 = tested on: XF498
SK-MEL-28 = tested on: SK-MEL-28
HL-60 = tested on: HL-60
CAKI-1 = tested on: CAKI-1
KM12 = tested on: KM12
DLD-1 = tested on: DLD-1
RXF 393 = tested on: RXF 393
DMS-273 = tested on: DMS-273
786-0 = tested on: 786-0
UACC-257 = tested on: UACC-257
OVCAR-5 = tested on: OVCAR-5
NCI-H522 = tested on: NCI-H522
OVCAR-8 = tested on: OVCAR-8
SNB-75 = tested on: SNB-75
M19-MEL = tested on: M19-MEL
HCC 2998 = tested on: HCC 2998
SF-539 = tested on: SF-539
SF-295 = tested on: SF-295
SK-MEL-2 = tested on: SK-MEL-2
A549 = tested on: A549

Measured: GI50

O=C(c1ccc(O)cc1O)C1C(c2ccc(O)cc2)OC(c2ccc(O)cc2)C1C(=O)c1ccc(O)cc1O (stereo not drawn)
inactive: NCI-H226 17.2 µM | SNB-78 19.1 µM | EKVX 21.2 µM | Malme-3M 14.2 µM | KM-20L2 71 µM | SF-268 17.1 µM | SNB-19 20.6 µM | UO-31 18.7 µM | NCI-H23 30 µM | SK-MEL-5 16.1 µM | OVCAR-3 18.7 µM | OVCAR-4 28.4 µM | HT-29 34.2 µM | HOP-62 5.26 µM | LXFL 529 17.3 µM | SN12C > 10 µM | SW-620 30.6 µM | M14 18 µM | TK-10 14.7 µM | U-251 16.5 µM | NCI-H460 42.8 µM | ACHN 22.2 µM | LOX IMVI 19.5 µM | XF498 15.5 µM | SK-MEL-28 19.4 µM | HL-60 17.8 µM | CAKI-1 45.6 µM | KM12 21.9 µM | DLD-1 44.1 µM | RXF 393 25.5 µM | DMS-273 16 µM | 786-0 5.38 µM | UACC-257 20.5 µM | OVCAR-5 12.6 µM | NCI-H522 16.5 µM | OVCAR-8 21.8 µM | SNB-75 16.6 µM | M19-MEL 19.6 µM | HCC 2998 13.8 µM | SF-539 20 µM | SF-295 25.5 µM | SK-MEL-2 22 µM | A549 > 100 µM
